Results taken from the supplement of paper PMC11451515.

Tests used:
Conditions in all cases: 48 h
NOMO1 [1] = assay: cell viability relative to DMSO control; higher = less cytotoxic
In short: (§1)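 Viability values are per-plate percentages of DMSO wells, with background from cell-free wells. Library compounds in DMSO were pin-dosed, in an 11-point threefold series from 47 μM to 0.79 nM, onto NOMO1 or SEM (500 cells/well) or P12-Ichikawa (1000 cells/well) leukemia cells in 1536-well plates (5 μl). Those cells had been adapted for at least four passages in each medium, and CellTiter-Glo One luminescence was read after 48 h at 37°C.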

P12-Ichikawa [2] = assay: as above
In short: as §1

SEM cells [3] = assay: as above
In short: as §1

NOMO1 [4] = assay: AUC of viability dose-response curve (% viability x log10 dose units); higher = less sensitive
In short: (§2)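 Leukemia cells adapted to each medium were seeded in 1536-well plates (500 or 1000 cells/well) and given library compounds in DMSO for 48 h at 37°C. The 11 threefold doses spanned 47 μM to 0.79 nM, and CellTiter-Glo One luminescence was normalised per plate to DMSO and cell-free wells before four-parameter log-logistic fitting on log10 dose. Area under the curve was integrated with the trapezoidal rule, scaling curves above full viability and removing curves that failed quality control.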

P12-Ichikawa [5] = assay: as above
In short: as §2

SEM cells [6] = assay: as above
In short: as §2

COc1ccc(-c2cc3nccn3c(Nc3ncccc3C(N)=O)n2)cc1OC
cell viability [%]
Conditions | NOMO1 [1] | P12-Ichikawa [2] | SEM cells [3]
HPLM + 10% dialyzed FBS, 0.000781 µM | 125 | 103 | 81.8
HPLM + 10% dialyzed FBS, 0.00234 µM | 111 | 112 | 92.1
HPLM + 10% dialyzed FBS, 0.00702 µM | 107 | 110 | 90.4
HPLM + 10% dialyzed FBS, 0.0211 µM | 117 | 112 | 86.8
HPLM + 10% dialyzed FBS, 0.0632 µM | 124 | 113 | 85.7
HPLM + 10% dialyzed FBS, 0.19 µM | 111 | 119 | 91.4
HPLM + 10% dialyzed FBS, 0.569 µM | 110 | 117 | 85.3
HPLM + 10% dialyzed FBS, 1.71 µM | 96.6 | 115 | 61.6
HPLM + 10% dialyzed FBS, 5.12 µM | 109 | 116 | 74.4
HPLM + 10% dialyzed FBS, 15.4 µM | 89 | 114 | 65.9
HPLM + 10% dialyzed FBS, 46.1 µM | 93 | 109 | 58.8
RPMI 5 mM glucose + 10% FBS, 0.000781 µM | 90 | 97.4 | 82.7
RPMI 5 mM glucose + 10% FBS, 0.00234 µM | 95.3 | 109 | 105
RPMI 5 mM glucose + 10% FBS, 0.00702 µM | 118 | 105 | 103
RPMI 5 mM glucose + 10% FBS, 0.0211 µM | 107 | 111 | 100
RPMI 5 mM glucose + 10% FBS, 0.0632 µM | 99.7 | 111 | 99
RPMI 5 mM glucose + 10% FBS, 0.19 µM | 111 | 109 | 87.2
RPMI 5 mM glucose + 10% FBS, 0.569 µM | 95 | 97.4 | 89.2
RPMI 5 mM glucose + 10% FBS, 1.71 µM | 103 | 104 | 63.1
RPMI 5 mM glucose + 10% FBS, 5.12 µM | 102 | 114 | 81
RPMI 5 mM glucose + 10% FBS, 15.4 µM | 92.7 | 107 | 60.7
RPMI 5 mM glucose + 10% FBS, 46.1 µM | 103 | 96.5 | 58.1
RPMI 5 mM glucose + 10% dialyzed FBS, 0.000781 µM | 106 | 99 | 85.7
RPMI 5 mM glucose + 10% dialyzed FBS, 0.00234 µM | 106 | 111 | 91.6
RPMI 5 mM glucose + 10% dialyzed FBS, 0.00702 µM | 113 | 111 | 86.6
RPMI 5 mM glucose + 10% dialyzed FBS, 0.0211 µM | 95.2 | 105 | 101
RPMI 5 mM glucose + 10% dialyzed FBS, 0.0632 µM | 116 | 110 | 91
RPMI 5 mM glucose + 10% dialyzed FBS, 0.19 µM | 107 | 115 | 76.2
RPMI 5 mM glucose + 10% dialyzed FBS, 0.569 µM | 106 | 116 | 68.5
RPMI 5 mM glucose + 10% dialyzed FBS, 1.71 µM | 105 | 90.9 | 49.9
RPMI 5 mM glucose + 10% dialyzed FBS, 5.12 µM | 107 | 114 | 59.3
RPMI 5 mM glucose + 10% dialyzed FBS, 15.4 µM | 109 | 101 | 49.1
RPMI 5 mM glucose + 10% dialyzed FBS, 46.1 µM | 101 | 102 | 49.5

AUC of viability dose-response curve
Conditions | NOMO1 [4] | P12-Ichikawa [5] | SEM cells [6]
HPLM + 10% dialyzed FBS | 444 | 471 | 380
RPMI 5 mM glucose + 10% FBS | 476 | 475 | 405
RPMI 5 mM glucose + 10% dialyzed FBS | 473 | 471 | 352

CC(=O)N(C)c1cccc(-c2ccnc3c(C(=O)c4cccs4)cnn23)c1
cell viability [%]
Conditions | NOMO1 [1] | P12-Ichikawa [2] | SEM cells [3]
HPLM + 10% dialyzed FBS, 0.000781 µM | 110 | 103 | 99.9
HPLM + 10% dialyzed FBS, 0.00234 µM | 107 | 115 | 88.7
HPLM + 10% dialyzed FBS, 0.00702 µM | 110 | 109 | 104
HPLM + 10% dialyzed FBS, 0.0211 µM | 77.7 | 101 | 37.5
HPLM + 10% dialyzed FBS, 0.0632 µM | 99.4 | 108 | 98.7
HPLM + 10% dialyzed FBS, 0.19 µM | 94.8 | 110 | 99.4
HPLM + 10% dialyzed FBS, 0.569 µM | 104 | 99.8 | 107
HPLM + 10% dialyzed FBS, 1.71 µM | 119 | 120 | 103
HPLM + 10% dialyzed FBS, 5.12 µM | 97.5 | 103 | 110
HPLM + 10% dialyzed FBS, 15.4 µM | 113 | 99.3 | 90
HPLM + 10% dialyzed FBS, 46.1 µM | 95.2 | 94.5 | 91.7
RPMI 5 mM glucose + 10% FBS, 0.000781 µM | 95.6 | 106 | 108
RPMI 5 mM glucose + 10% FBS, 0.00234 µM | 104 | 96.8 | 107
RPMI 5 mM glucose + 10% FBS, 0.00702 µM | 100 | 88.5 | 95.5
RPMI 5 mM glucose + 10% FBS, 0.0211 µM | 92.6 | 80.9 | 37.7
RPMI 5 mM glucose + 10% FBS, 0.0632 µM | 99.5 | 102 | 112
RPMI 5 mM glucose + 10% FBS, 0.19 µM | 104 | 101 | 101
RPMI 5 mM glucose + 10% FBS, 0.569 µM | 98 | 107 | 94.1
RPMI 5 mM glucose + 10% FBS, 1.71 µM | 100 | 90.5 | 98.5
RPMI 5 mM glucose + 10% FBS, 5.12 µM | 102 | 95.8 | 101
RPMI 5 mM glucose + 10% FBS, 15.4 µM | 94.5 | 88.1 | 98.5
RPMI 5 mM glucose + 10% FBS, 46.1 µM | 90.1 | 90.2 | 97
RPMI 5 mM glucose + 10% dialyzed FBS, 0.000781 µM | 92.8 | 105 | 104
RPMI 5 mM glucose + 10% dialyzed FBS, 0.00234 µM | 103 | 98.7 | 99.7
RPMI 5 mM glucose + 10% dialyzed FBS, 0.00702 µM | 87.2 | 105 | 87
RPMI 5 mM glucose + 10% dialyzed FBS, 0.0211 µM | 73.7 | 88 | 46.9
RPMI 5 mM glucose + 10% dialyzed FBS, 0.0632 µM | 97.9 | 93.9 | 100
RPMI 5 mM glucose + 10% dialyzed FBS, 0.19 µM | 89 | 103 | 101
RPMI 5 mM glucose + 10% dialyzed FBS, 0.569 µM | 99.4 | 107 | 102
RPMI 5 mM glucose + 10% dialyzed FBS, 1.71 µM | 87.2 | 89.7 | 109
RPMI 5 mM glucose + 10% dialyzed FBS, 5.12 µM | 95.6 | 95 | 118
RPMI 5 mM glucose + 10% dialyzed FBS, 15.4 µM | 99.6 | 90.3 | 112
RPMI 5 mM glucose + 10% dialyzed FBS, 46.1 µM | 82.2 | 92 | 99.6

AUC of viability dose-response curve
Conditions | NOMO1 [4] | P12-Ichikawa [5] | SEM cells [6]
HPLM + 10% dialyzed FBS | 477 | 458 | 447
RPMI 5 mM glucose + 10% FBS | 470 | 454 | 456
RPMI 5 mM glucose + 10% dialyzed FBS | 437 | 453 | 439

Cc1cc(CN2CCN(c3c(Br)cnc4[nH]c(-c5ccc(N6CCN(C)CC6)cc5)nc34)CC2)no1
NOMO1 [1], RPMI 5 mM glucose + 10% FBS
Conditions | cell viability [%]
0.000781 µM | 120
0.00234 µM | 131
0.00702 µM | 120
0.0211 µM | 129
0.0632 µM | 138
0.19 µM | 117
0.569 µM | 113
1.71 µM | 70.2
5.12 µM | 102
15.4 µM | 78.1
46.1 µM | 80.6

AUC of viability dose-response curve
Conditions | NOMO1 [4] | P12-Ichikawa [5] | SEM cells [6]
HPLM + 10% dialyzed FBS | 377 | 329 | 317
RPMI 5 mM glucose + 10% FBS | 415 | 333 | 310
RPMI 5 mM glucose + 10% dialyzed FBS | 410 | 348 | 307
